In ChEMBL document CHEMBL1275486, “Kinetic characterization of VIM-7, a divergent member of the VIM metallo-beta-lactamase family” (Antimicrob Agents Chemother, 2008):

Columns and labels:
[1] = system: Escherichia coli; assay: Activity of Escherichia coli beta-lactamase VIM-1 by spectrophotometry
[2] = system: Escherichia coli; assay: Ratio of Kcat to Km for Escherichia coli beta-lactamase VIM-1 by spectrophotometry

Work on `O=C(Cc1cccs1)N[C@@H]1C(=O)N2C(C(=O)[O-])=C(C[n+]3ccccc3)CS[C@H]12` yielded a Km [1] of 30 µM, a kcat [1] of 315 s⁻¹ and a kcat/Km [2] of 1.05e+07 M⁻¹ s⁻¹.
